Results on 17 compounds are retold here after US12448399B2, “Cereblon-based KRAS degrading PROTACs and uses related thereto” (Arvinas Operations, Inc., priority 2023, dated 2025).

For this assay, the target named is T1, KRas-G12D (Homo sapiens, UniProt P01116, G12D).
T1 construct: insert the HiBiT tag onto the N-terminus of one or more of the endogenous KRas alleles; host or cells: AsPC-1 HiBiT-KRasG12D knock-in clone (one tagged allele, two untagged KRasG12D alleles)
Kind of assay: HiBiT Degradation Assay (G12D), AsPC-1 HiBiT-KRasG12D cells, 24 hr. It is filed as cell-based. The settings on record: for Dmax: ASPC1, AsPC-1 cells, maximum degradation observed; for DC50: AsPC-1 cells. The essentials:
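AsPC-1 cells with CRISPR N-terminal HiBiT knock-in on one endogenous KRasG12D allele, treated 24 hr at 37° C with compound titrations in 0.5% DMSO. Lytic HiBiT luminescence normalized to DMSO, fitted to a 4-parameter model for DC50 and Dmax. Parallel alamar blue (4 hr) checked viability.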
A general note: With HiBiT, luminescence reflects the tagged protein that the partner subunit can reach.

In general, Dmax refers to the greatest extent of degradation seen. What is called DC50 is the concentration giving 50% degradation. A lower DC50 goes with a more potent degrader.

T1 sequence (P01116 1-188 isoform P01116-2 G12D): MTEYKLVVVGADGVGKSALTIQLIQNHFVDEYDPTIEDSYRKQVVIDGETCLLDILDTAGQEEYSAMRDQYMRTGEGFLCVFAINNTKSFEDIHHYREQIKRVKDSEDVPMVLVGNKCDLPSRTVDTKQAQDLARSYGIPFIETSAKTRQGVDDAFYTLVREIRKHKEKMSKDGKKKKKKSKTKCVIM

`C#Cc1c(F)ccc2cc(O)cc(-c3ncc4c(N5CC6CCC(C5)N6)nc(OCCN5CCC(CC6CCN(CC7CCN(c8ccc9c(c8Cl)CN(C8CCC(=O)NC8=O)C9=O)CC7)CC6)CC5)nc4c3F)c12` (stereo not drawn) [Compound 109, 3-(5-(4-((4-((1-(2-((4-(-3,8-diazabicyclo[3.2.1]octan-3-yl)-7-(8-ethynyl-7-fluoro-3-hydroxynaphthalen-1-yl)-8-fluoropyrido[4,3-d]pyrimidin-2-yl)oxy)ethyl)piperidin-4-yl)methyl)piperidin-1-yl)methyl)piperidin-1-yl)-4-chloro-1-oxoisoindolin-2-yl)piperidine-2,6-dione]: the Dmax was > 70% and the DC50 is < 5.1 µM.

On to `C#Cc1c(F)ccc2cc(O)cc(-c3ncc4c(N5CC6CCC(C5)N6)nc(OCCN5CCC(CN6CCC(CC7CCN(c8ccc9c(c8)n(C(C)C)c(=O)n9C8CCC(=O)NC8=O)CC7)CC6)CC5)nc4c3F)c12` (stereo not drawn) [Compound 80, 3-{5-[4-({1-[(1-{2-[(4-{3,8-diazabicyclo[3.2.1]octan-3-yl}-7-(8-ethynyl-7-fluoro-3-hydroxynaphthalen-1-yl)-8-fluoropyrido[4,3-d]pyrimidin-2-yl)oxy]ethyl}piperidin-4-yl)methyl]piperidin-4-yl}methyl)piperidin-1-yl]-2-oxo-3-(propan-2-yl)-2,3-dihydro-1H-1,3-benzodiazol-1-yl}piperidine-2,6-dione], for which the Dmax was > 70% and the DC50 was < 5.1 µM.

Turning to `C#Cc1c(F)ccc2cc(O)cc(-c3ncc4c(N5CC6CCC(C5)N6)nc(OCCN5CCC6(CC5)CN(CC5(F)CCN(c7ccc8c(c7F)CN(C7CCC(=O)NC7=O)C8=O)CC5)C6)nc4c3F)c12` (stereo not drawn) [Compound 119, 3-(5-{4-[(7-{2-[(4-{3,8-diazabicyclo[3.2.1]octan-3-yl}-7-(8-ethynyl-7-fluoro-3-hydroxynaphthalen-1-yl)-8-fluoropyrido[4,3-d]pyrimidin-2-yl)oxy]ethyl}-2,7-diazaspiro[3.5]nonan-2-yl)methyl]-4-fluoropiperidin-1-yl}-4-fluoro-1-oxo-2,3-dihydro-1H-isoindol-2-yl)piperidine-2,6-dione], the DC50 is < 5.1 µM.

On to `C#Cc1c(F)ccc2cc(O)cc(-c3ncc4c(N5CC6CCC(C5)N6)nc(OCCN5CCC(CC6CCN(CC7CCN(c8ccc9c(c8F)n(C(C)C)c(=O)n9C8CCC(=O)NC8=O)CC7)CC6)CC5)nc4c3F)c12` (stereo not drawn) [Compound 217, 3-{5-[4-({4-[(1-{2-[(4-{3,8-diazabicyclo[3.2.1]octan-3-yl}-7-(8-ethynyl-7-fluoro-3-hydroxynaphthalen-1-yl)-8-fluoropyrido[4,3-d]pyrimidin-2-yl)oxy]ethyl}piperidin-4-yl)methyl]piperidin-1-yl}methyl)piperidin-1-yl]-4-fluoro-2-oxo-3-(propan-2-yl)-2,3-dihydro-1H-1,3-benzodiazol-1-yl}piperidine-2,6-dione], for which the Dmax is > 70% and the DC50 was < 5.1 µM.

In the case of `C#Cc1c(F)ccc2cc(O)cc(-c3ncc4c(N5CC6CCC(C5)N6)nc(OC[C@@H]5CC[C@@H](CN6CCN(c7ccc8c(c7)n(C(C)C)c(=O)n8C7CCC(=O)NC7=O)CC6)N5C)nc4c3F)c12` (stereo partly drawn) [Compound 176, 3-[5-(4-{[(2S,5S)-5-{[(4-{3,8-diazabicyclo[3.2.1]octan-3-yl}-7-(8-ethynyl-7-fluoro-3-hydroxynaphthalen-1-yl)-8-fluoropyrido[4,3-d]pyrimidin-2-yl)oxy]methyl}-1-methylpyrrolidin-2-yl]methyl}piperazin-1-yl)-2-oxo-3-(propan-2-yl)-2,3-dihydro-1H-1,3-benzodiazol-1-yl]piperidine-2,6-dione], the Dmax was > 70% and the DC50 is < 5.1 µM.

`CCc1cccc2cc(O)cc(-c3ncc4c(N5CC6CCC(C5)N6)nc(OCCN5CCC(CN6CC7(C6)CN(c6ccc8c(c6)C(=O)N(C6CCC(=O)NC6=O)C8=O)C7)CC5)nc4c3F)c12` (stereo not drawn) [Compound 1] showed a DC50 of 0.1 to 5.25 µM.

Regarding `C#Cc1c(F)ccc2cc(O)cc(-c3ncc4c(N5CC6CCC(C5)N6)nc(OCC5(CN6CCC(CN7CCN(c8ccc9c(c8Cl)CN(C8CCC(=O)NC8=O)C9=O)CC7)CC6)CC5)nc4c3F)c12` (stereo not drawn) [Compound 187, 3-{4-chloro-5-[4-({1-[(1-{[(4-{3,8-diazabicyclo[3.2.1]octan-3-yl}-7-(8-ethynyl-7-fluoro-3-hydroxynaphthalen-1-yl)-8-fluoropyrido[4,3-d]pyrimidin-2-yl)oxy]methyl}cyclopropyl)methyl]piperidin-4-yl}methyl)piperazin-1-yl]-1-oxo-2,3-dihydro-1H-isoindol-2-yl}piperidine-2,6-dione], the Dmax is > 70% and the DC50 is < 5.1 µM.

Consider `CCc1cccc2cc(O)cc(-c3ncc4c(N5CC6CCC(C5)N6)nc(OCCN5CCC(CC6CCN(c7cccc8c7C(=O)N(C7CCC(=O)NC7=O)C8=O)CC6)CC5)nc4c3F)c12` (stereo not drawn) [Compound 66, 4-[4-[[1-[2-[4-(3,8-diazabicyclo[3.2.1]octan-3-yl)-7-(8-ethyl-3-hydroxy-1-naphthyl)-8-fluoro-pyrido[4,3-d]pyrimidin-2-yl]oxyethyl]-4-piperidyl]methyl]-1-piperidyl]-2-(2,6-dioxo-3-piperidyl)isoindoline-1,3-dione], for which the Dmax is ≤ 25% and the DC50 is 0.25 to 1 µM.

For `C#Cc1c(F)ccc2cc(O)cc(-c3ncc4c(N5CC6CCC(C5)N6)nc(OCCN5CCC(CC6CCN(c7ccc8c(c7)n(C(C)C)c(=O)n8C7CCC(=O)NC7=O)CC6)CC5)nc4c3F)c12` (stereo not drawn) [Compound 175, 3-(5-{4-[(1-{2-[(4-{3,8-diazabicyclo[3.2.1]octan-3-yl}-7-(8-ethynyl-7-fluoro-3-hydroxynaphthalen-1-yl)-8-fluoropyrido[4,3-d]pyrimidin-2-yl)oxy]ethyl}piperidin-4-yl)methyl]piperidin-1-yl}-2-oxo-3-(propan-2-yl)-2,3-dihydro-1H-1,3-benzodiazol-1-yl)piperidine-2,6-dione], the Dmax was > 70% and the DC50 was < 5.1 µM.

Regarding `C#Cc1c(F)ccc2cccc(-c3ncc4c(N5CC6CCC(C5)N6)nc(OC[C@]56CCCN5[C@H](CN5CCN(CC7CCN(c8ccc9c(c8)CN(C8CCC(=O)NC8=O)C9=O)CC7)CC5)CC6)nc4c3F)c12` (stereo partly drawn) [Compound 143], the DC50 was < 5.1 µM.

`CCc1cccc2cc(O)cc(-c3ncc4c(N5CC6CCC(C5)N6)nc(OC[C@]56CCCN5[C@@H](COC(=O)N5CCN(c7cccc8c7CN(C7CCC(=O)N(C)C7=O)C8=O)CC5)CC6)nc4c3F)c12` (stereo partly drawn) [Compound 54, [(3R,8R)-8-[[4-(3,8-diazabicyclo[3.2.1]octan-3-yl)-7-(8-ethyl-3-hydroxy-1-naphthyl)-8-fluoro-pyrido[4,3-d]pyrimidin-2-yl]oxymethyl]-1,2,3,5,6,7-hexahydropyrrolizin-3-yl]methyl4-[2-(1-methyl-2,6-dioxo-3-piperidyl)-1-oxo-isoindolin-4-yl]piperazine-1-carboxylate]: the Dmax was ≤ 25% and the DC50 lay within 0.25 to 1 µM.

With `CCc1cccc2cc(O)cc(-c3ncc4c(N5CC6CCC(C5)N6)nc(OCCN5CCN(CC6CCN(C(=O)c7ccc(OC)c(N8CCC(=O)NC8=O)c7)CC6)CC5)nc4c3F)c12` [Compound 6], the DC50 is > 1 µM.

With `C#Cc1c(F)ccc2cccc(-c3ncc4c(N5CC6CCC(C5)N6)nc(OCCN5CCC(CC6CCN(CC7CCN(c8cccc9c8CN(C8CCC(=O)NC8=O)C9=O)CC7)CC6)CC5)nc4c3F)c12` (stereo not drawn) [Compound 157], the DC50 was > 1 µM.

On to `C#Cc1c(F)ccc2cc(O)cc(-c3ncc4c(N5CC6CCC(C5)N6)nc(OC[C@@H]5C[C@@H](OC6CCN(CC7CCN(c8ccc9c(c8)CN(C8CCC(=O)NC8=O)C9=O)CC7)CC6)CN5CC)nc4c3F)c12` (stereo partly drawn) [Compound 165, 3-(5-{4-[(4-{[(3R,5S)-5-{[(4-{3,8-diazabicyclo[3.2.1]octan-3-yl}-7-(8-ethynyl-7-fluoro-3-hydroxynaphthalen-1-yl)-8-fluoropyrido[4,3-d]pyrimidin-2-yl)oxy]methyl}-1-ethylpyrrolidin-3-yl]oxy}piperidin-1-yl)methyl]piperidin-1-yl}-1-oxo-2,3-dihydro-1H-isoindol-2-yl)piperidine-2,6-dione], for which the Dmax was > 70% and the DC50 was < 5.1 µM.

On to `C#Cc1c(F)ccc2cc(O)cc(-c3nc(N4CC5CCC(C4)N5)c4cnc(OCCN5CCC6(CC5)CN(CC5CCN(c7ccc8c(c7F)CN(C7CCC(=O)NC7=O)C8=O)CC5)C6)nc4c3F)c12` (stereo not drawn) [Compound 127], for which the DC50 was < 5.1 µM.

As to `C#Cc1c(F)ccc2cc(O)cc(-c3ncc4c(N5CC6CCC(C5)N6)nc(OCCN5CCC6(CC5)CCN(CC5CCN(c7ccc8c(c7Cl)CN(C7CCC(=O)NC7=O)C8=O)CC5)CC6)nc4c3F)c12` (stereo not drawn) [Compound 220, 3-(4-chloro-5-{4-[(9-{2-[(4-{3,8-diazabicyclo[3.2.1]octan-3-yl}-7-(8-ethynyl-7-fluoro-3-hydroxynaphthalen-1-yl)-8-fluoropyrido[4,3-d]pyrimidin-2-yl)oxy]ethyl}-3,9-diazaspiro[5.5]undecan-3-yl)methyl]piperidin-1-yl}-1-oxo-2,3-dihydro-1H-isoindol-2-yl)piperidine-2,6-dione], the Dmax was > 70% and the DC50 was < 5.1 µM.

Turning to `C#Cc1c(F)ccc2cc(O)cc(-c3ncc4c(N5CC6CCC(C5)N6)nc(OCCN5CCC(CC6CCN(CC7CCN(c8ccc9c(c8)CN(C8(C)CCC(=O)NC8=O)C9=O)CC7)CC6)CC5)nc4c3F)c12` (stereo not drawn) [Compound 97], the DC50 is > 1 µM.
